According to US20110190834A1, “DEVICES AND METHODS FOR SUPPRESSION OF SYMPATHOEXCITATION” (priority 2010, published 2011):
Like-named read-outs stand apart in the source and are kept apart here.

Assays:
[1] = European (EMIAT) and Canadian (CAMIAT) post-myocardial infarction studies; cited from earlier work
[2] = Heart rate and blood pressure at peak exercise and in recovery, with atropine given during exercise; type: in vivo, human
Description: In experiments performed during development of embodiments of the present invention, the parasympathetic effects on cardiac electrophysiology during the post-exercise recovery period were studied. Subjects underwent upright bicycle exercise testing on two occasions. Continuous 12-lead ECG monitoring was performed using a commercially available system (Quest Exercise Stress System, Burdick, Deerfield Wis.) for a baseline period of 5 minutes prior to exercise. Subjects underwent a 16-minute submaximal exercise protocol on a stationary bicycle with an initial work load of 50 Watts followed by increases to 75 Watts at 4 minutes and 100 Watts at 8 minutes, as tolerated by the patient. Continuous ECG was recorded for up to 45 minutes of recovery. Blood samples for determination of plasma epinephrine and norepinephrine samples were taken during the rest period, at minutes 8 and 15 of exercise, and during the recovery period at 5, 10, 20, 30, and 45 minutes after cessation of exercise. […]

[3] = Atropine test
[4] = atropine test versus baseline test
[5] = peak exercise, iv atropine 0.04 mg/kg from minute 12 of exercise
[6] = recovery 5 min, iv atropine 0.04 mg/kg during exercise
[7] = recovery 10 min, iv atropine 0.04 mg/kg during exercise
[8] = recovery 20 min, iv atropine 0.04 mg/kg during exercise
[9] = recovery 30 min, iv atropine 0.04 mg/kg during exercise

SMILES	effect on total mortality [1]	change in diastolic blood pressure [2, 4]	change in heart rate [2, 4]	change in systolic blood pressure [2, 4]	Diastolic BP [2, 5] [mmHg]	Systolic BP [2, 5] [mmHg]	Diastolic BP [2, 6] [mmHg]	HEART RATE [2, 6] [bpm]	Systolic BP [2, 6] [mmHg]	Diastolic BP [2, 7] [mmHg]	HEART RATE [2, 7] [bpm]	Systolic BP [2, 7] [mmHg]	Diastolic BP [2, 8] [mmHg]	HEART RATE [2, 8] [bpm]	Systolic BP [2, 8] [mmHg]	Diastolic BP [2, 9] [mmHg]	HEART RATE [2, 9] [bpm]	Systolic BP [2, 9] [mmHg]	ln(NE) mean ([3]; 30th min recovery, N=81)	ln(NE) mean ([3]; rest (before exercise and before atropine), N=90)
CCCCc1oc2ccccc2c1C(=O)c1cc(I)c(OCCN(CC)CC)c(I)c1 [Amiodarone]	has not been shown to have a beneficial effect																			
CN1[C@@H]2CC[C@H]1C[C@@H](OC(=O)C(CO)c1ccccc1)C2 (some centres unmarked) [Atropine, atropine]		no detectable changes	large changes in heart rate	no detectable changes	83 ± 14	162 ± 25	78 ± 9	110 ± 16	122 ± 15	78 ± 9	106 ± 16	120 ± 16	78 ± 11	102 ± 15	118 ± 14	79 ± 9	99 ± 14	117 ± 14	6.31	6.38
